Data set [1] in a line: Drug level in BALB/c mouse bile assessed as compound formation treated with monoHER at 500 mg/kg, ip measured after 240 mins by LC-DAD-TOF-MS analysis. The class given is ADME, organism-based. To be noted: in vivo, 4 h. More on the design: dose 500 mg/kg, route intraperitoneal.
Data set [2] can be described thus: Drug level in BALB/c mouse bile treated with 7-mono-O-(beta-hydroxyethyl)-rutoside assessed as relative metabolite level at 500 mg/kg, ip measured after 60 mins by LC-DAD-TOF-MS analysis. It counts as ADME, organism-based. More on the design: dose 500 mg/kg, route intraperitoneal. To be noted: in vivo, 1 h.
Data set [3] is described as follows: Retention time of the compound by LC-DAD-TOF-MS analysis. It counts as physicochemical.
Data set [4] is described as follows: Drug level in BALB/c mouse bile assessed as compound formation treated with monoHER at 500 mg/kg, ip measured after 60 mins by LC-DAD-TOF-MS analysis. It counts as ADME, organism-based. Also on record: dose 500 mg/kg, route intraperitoneal. As to conditions: in vivo, 1 h.
Data set [5] in a line: Drug metabolism in BALB/c mouse bile assessed as 2-(2-(3,4-dihydroxyphenyl)-5-hydroxy-4-oxo-3-((2S,3R,4S,5S,6R)-3,4,5-trihydroxy-6-(((2R,3R,4R,5R,6S)-3,4,5-trihydroxy-6-methyltetrahydro-2H-pyran-2-yloxy)methyl)tetrahydro-2H-pyran-2-yloxy)-4H-chromen-7-yloxy)acetic acid formation at 500 mg/kg, ip measured after 60 mins by LC-DAD-TOF-MS analysis. To be noted: in vivo, 1 h. The class given is ADME, organism-based. Also on record: dose 500 mg/kg, route intraperitoneal.

A short description of data set [6]: Drug metabolism in BALB/c mouse bile assessed as 2-(3,4-dimethoxyphenyl)-5-hydroxy-7-(2-hydroxyethoxy)-3-((2S,3R,4S,5S,6R)-3,4,5-trihydroxy-6-(((2R,3R,4R,5R,6S)-3,4,5-trihydroxy-6-methyltetrahydro-2H-pyran-2-yloxy)methyl)tetrahydro-2H-pyran-2-yloxy)-4H-chromen-4-one formation at 500 mg/kg, ip measured after 60 mins by LC-DAD-TOF-MS analysis. The class given is ADME, organism-based. More on the design: dose 500 mg/kg, route intraperitoneal. To be noted: in vivo, 1 h.

Data set [7] is described as follows: Drug metabolism in BALB/c mouse bile assessed as (S)-4-amino-5-((R)-1-(carboxymethylamino)-3-(2,3-dihydroxy-6-(5-hydroxy-7-(2-hydroxyethoxy)-4-oxo-3-((2S,3R,4S,5S,6R)-3,4,5-trihydroxy-6-(((2R,3R,4R,5R,6S)-3,4,5-trihydroxy-6-methyltetrahydro-2H-pyran-2-yloxy)methyl)tetrahydro-2H-pyran-2-yloxy)-4H-chromen-2-yl)phenylthio)-1-oxopropan-2-ylamino)-5-oxopentanoic acid formation at 500 mg/kg, ip measured after 60 mins by LC-DAD-TOF-MS analysis. The class given is ADME, organism-based. Also on record: dose 500 mg/kg, route intraperitoneal. To be noted: in vivo, 1 h.

Data set [8] is described as follows: Drug metabolism in BALB/c mouse bile assessed as 2-(3,4-dimethoxyphenyl)-5-hydroxy-7-(2-hydroxyethoxy)-3-((2S,3R,4S,5S,6R)-3,4,5-trihydroxy-6-(hydroxymethyl)tetrahydro-2H-pyran-2-yloxy)-4H-chromen-4-one formation at 500 mg/kg, ip measured after 240 mins by LC-DAD-TOF-MS analysis. It counts as ADME, organism-based. As to conditions: in vivo. More on the design: dose 500 mg/kg, route intraperitoneal.

Data set [9] can be described thus: Half life in mouse heart. It counts as ADME.
A short description of data set [10]: Drug metabolism in BALB/c mouse bile assessed as (2S,2'S,3S,3'S,4S,4'S,5R,5'R,6S,6'S)-6,6'-(4-(5-hydroxy-7-(2-hydroxyethoxy)-4-oxo-3-((2S,3R,4S,5S,6R)-3,4,5-trihydroxy-6-(((2R,3R,4R,5R,6S)-3,4,5-trihydroxy-6-methyltetrahydro-2H-pyran-2-yloxy)methyl)tetrahydro-2H-pyran-2-yloxy)-4H-chromen-2-yl)-1,2-phenylene)bis(oxy)bis(3,4,5-trihydroxytetrahydro-2H-pyran-2-carboxylic acid) formation at 500 mg/kg, ip measured after 60 mins by LC-DAD-TOF-MS analysis. As to conditions: in vivo, 1 h. More on the design: dose 500 mg/kg, route intraperitoneal. The class given is ADME, organism-based.

A short description of data set [11]: Drug metabolism in BALB/c mouse bile assessed as (2S,3S,4S,5R,6S)-3,4,5-trihydroxy-6-(5-(5-hydroxy-7-(2-hydroxyethoxy)-4-oxo-3-((2S,3R,4S,5S,6R)-3,4,5-trihydroxy-6-(((2R,3R,4R,5R,6S)-3,4,5-trihydroxy-6-methyltetrahydro-2H-pyran-2-yloxy)methyl)tetrahydro-2H-pyran-2-yloxy)-4H-chromen-2-yl)-2-methoxyphenoxy)tetrahydro-2H-pyran-2-carboxylic acid formation at 500 mg/kg, ip measured after 60 mins by LC-DAD-TOF-MS analysis. Also on record: dose 500 mg/kg, route intraperitoneal. The class given is ADME, organism-based. As to conditions: in vivo, 1 h.

Data set [12] is described as follows: Drug metabolism in BALB/c mouse bile assessed as 2-(5-hydroxy-2-(3-hydroxy-4-methoxyphenyl)-4-oxo-3-((2S,3R,4S,5S,6R)-3,4,5-trihydroxy-6-(((2R,3R,4R,5R,6S)-3,4,5-trihydroxy-6-methyltetrahydro-2H-pyran-2-yloxy)methyl)tetrahydro-2H-pyran-2-yloxy)-4H-chromen-7-yloxy)acetic acid formation at 500 mg/kg, ip measured after 60 mins by LC-DAD-TOF-MS analysis. It counts as ADME, organism-based. More on the design: dose 500 mg/kg, route intraperitoneal. As to conditions: in vivo, 1 h.

Data set [13] can be described thus: Drug metabolism in BALB/c mouse bile assessed as (2S,3S,4S,5R,6S)-6-(5-(7-(carboxymethoxy)-5-hydroxy-4-oxo-3-((2S,3R,4S,5S,6R)-3,4,5-trihydroxy-6-(((2R,3R,4R,5R,6S)-3,4,5-trihydroxy-6-methyltetrahydro-2H-pyran-2-yloxy)methyl)tetrahydro-2H-pyran-2-yloxy)-4H-chromen-2-yl)-2-methoxyphenoxy)-3,4,5-trihydroxytetrahydro-2H-pyran-2-carboxylic acid formation at 500 mg/kg, ip measured after 60 mins by LC-DAD-TOF-MS analysis. The class given is ADME, organism-based. More on the design: dose 500 mg/kg, route intraperitoneal. To be noted: in vivo, 1 h.

Data set [14] in a line: Drug metabolism in BALB/c mouse bile assessed as (2S,3S,4S,5R,6S)-6-(5-(7-(carboxymethoxy)-5-hydroxy-4-oxo-3-((2S,3R,4S,5S,6R)-3,4,5-trihydroxy-6-(((2R,3R,4R,5R,6S)-3,4,5-trihydroxy-6-methyltetrahydro-2H-pyran-2-yloxy)methyl)tetrahydro-2H-pyran-2-yloxy)-4H-chromen-2-yl)-2-hydroxyphenoxy)-3,4,5-trihydroxytetrahydro-2H-pyran-2-carboxylic acid formation at 500 mg/kg, ip measured after 60 mins by LC-DAD-TOF-MS analysis. As to conditions: in vivo, 1 h. More on the design: dose 500 mg/kg, route intraperitoneal. It counts as ADME, organism-based.

A short description of data set [15]: Drug metabolism in BALB/c mouse bile assessed as 5-hydroxy-2-(3-hydroxy-4-methoxyphenyl)-7-(2-hydroxyethoxy)-3-((2S,3R,4S,5S,6R)-3,4,5-trihydroxy-6-(hydroxymethyl)tetrahydro-2H-pyran-2-yloxy)-4H-chromen-4-one formation at 500 mg/kg, ip measured after 240 mins by LC-DAD-TOF-MS analysis. The class given is ADME, organism-based. More on the design: dose 500 mg/kg, route intraperitoneal. As to conditions: in vivo.

Data set [16] in a line: Half life in mouse plasma. It counts as ADME, cell-free.
Data set [17] is described as follows: Drug metabolism in BALB/c mouse bile assessed as 5-hydroxy-2-(3-hydroxy-4-methoxyphenyl)-7-(2-hydroxyethoxy)-3-((2S,3R,4S,5S,6R)-3,4,5-trihydroxy-6-(((2R,3R,4R,5R,6S)-3,4,5-trihydroxy-6-methyltetrahydro-2H-pyran-2-yloxy)methyl)tetrahydro-2H-pyran-2-yloxy)-4H-chromen-4-one formation at 500 mg/kg, ip measured after 60 mins by LC-DAD-TOF-MS analysis. The class given is ADME, organism-based. More on the design: dose 500 mg/kg, route intraperitoneal. To be noted: in vivo, 1 h.

Experimental findings from ChEMBL document CHEMBL3525923, “Identification of the metabolites of the antioxidant flavonoid 7-mono-O-(β-hydroxyethyl)-rutoside in mice” (Drug Metab Dispos, 2011) are described below.

In the case of `COc1ccc(-c2oc3cc(OCCO)cc(O)c3c(=O)c2O[C@@H]2O[C@H](CO)[C@@H](O)[C@H](O)[C@H]2O)cc1OC`, in data set [1], the Drug metabolism entry is reported as “metabolite_detected”. Moreover, the “Relative metabolite level in bile” value in [2] is on record as 0.6%. The compound also had a Retention_time in data set [3] of 12.5 min.
As to `C[C@@H]1O[C@@H](OC[C@H]2O[C@@H](Oc3c(-c4ccc(O)c(O[C@@H]5O[C@H](C(=O)O)[C@@H](O)[C@H](O)[C@H]5O)c4)oc4cc(OCC(=O)O)cc(O)c4c3=O)[C@H](O)[C@@H](O)[C@@H]2O)[C@H](O)[C@H](O)[C@H]1O`, the Drug metabolism entry in [4] is given as “metabolite_detected”. For the same compound, the “Relative metabolite level in bile” value in [2] was found to be 0.3%. For the same compound, the Retention_time in data set [3] turned out to be 7.8 min.
Consider `C[C@@H]1O[C@@H](OC[C@H]2O[C@@H](Oc3c(-c4ccc(O[C@@H]5O[C@H](C(=O)O)[C@@H](O)[C@H](O)[C@H]5O)c(O[C@@H]5O[C@H](C(=O)O)[C@@H](O)[C@H](O)[C@H]5O)c4)oc4cc(OCCO)cc(O)c4c3=O)[C@H](O)[C@@H](O)[C@@H]2O)[C@H](O)[C@H](O)[C@H]1O`, for which the Drug metabolism result in data set [4] is “metabolite_detected”. Moreover, the “Relative metabolite level in bile” value in data set [2] was 0.7%. Further, the Retention_time in data set [3] came out at 7.1 min.
Take `COc1ccc(-c2oc3cc(OCCO)cc(O)c3c(=O)c2O[C@@H]2O[C@H](CO)[C@@H](O)[C@H](O)[C@H]2O)cc1O`: in data set [1], the Drug metabolism result was “metabolite_detected”. Also, the “Relative metabolite level in bile” value in [2] stood at 0.9%. For the same compound, in data set [3], the Retention_time is 7.6 min.
Take `COc1ccc(-c2oc3cc(OCC(=O)O)cc(O)c3c(=O)c2O[C@@H]2O[C@H](CO[C@@H]3O[C@@H](C)[C@H](O)[C@@H](O)[C@H]3O)[C@@H](O)[C@H](O)[C@H]2O)cc1O[C@@H]1O[C@H](C(=O)O)[C@@H](O)[C@H](O)[C@H]1O`: the Drug metabolism entry in data set [4] is recorded as “metabolite_detected”. For the same compound, in data set [2], the “Relative metabolite level in bile” value stood at 0.4%. In addition, the Retention_time in [3] is 8.8 min.
`C[C@@H]1O[C@@H](OC[C@H]2O[C@@H](Oc3c(-c4ccc(O)c(O)c4SC[C@H](NC(=O)CC[C@H](N)C(=O)O)C(=O)NCC(=O)O)oc4cc(OCCO)cc(O)c4c3=O)[C@H](O)[C@@H](O)[C@@H]2O)[C@H](O)[C@H](O)[C@H]1O`: the Drug metabolism result in data set [4] was “metabolite_detected”. Also, in data set [2], the “Relative metabolite level in bile” value is listed as 0.6%. The same compound returned a Retention_time in data set [3] of 3.4 min.
On to `C[C@@H]1O[C@@H](OC[C@H]2O[C@@H](Oc3c(-c4ccc(O)c(O)c4)oc4cc(OCCO)cc(O)c4c3=O)[C@H](O)[C@@H](O)[C@@H]2O)[C@H](O)[C@H](O)[C@H]1O` [MONOXERUTIN], for which the Drug metabolism entry in [5], in data set [6], in data set [7], in data set [8], in [10] and in data set [11] was “metabolite_detected” throughout. The Drug metabolism entry in data set [12], in [13], in data set [14], in data set [15] and in data set [17] was “metabolite_detected” each time. In data set [2], the “Relative metabolite level in bile” value is on record as 29%. In addition, the half-life was 0.27 h in data set [9] and 0.197 h in data set [16]. In [3], this compound gave a Retention_time of 8.5 min.
As for `COc1ccc(-c2oc3cc(OCC(=O)O)cc(O)c3c(=O)c2O[C@@H]2O[C@H](CO[C@@H]3O[C@@H](C)[C@H](O)[C@@H](O)[C@H]3O)[C@@H](O)[C@H](O)[C@H]2O)cc1O`, in data set [4], the Drug metabolism entry is on record as “metabolite_detected”. For the same compound, the “Relative metabolite level in bile” value in data set [2] turned out to be 5%. The compound also registered a Retention_time in [3] of 12.3 min.
Take `COc1ccc(-c2oc3cc(OCCO)cc(O)c3c(=O)c2O[C@@H]2O[C@H](CO[C@@H]3O[C@@H](C)[C@H](O)[C@@H](O)[C@H]3O)[C@@H](O)[C@H](O)[C@H]2O)cc1O[C@@H]1O[C@H](C(=O)O)[C@@H](O)[C@H](O)[C@H]1O`: the Drug metabolism entry in data set [4] is reported as “metabolite_detected”. In addition, in data set [2], the “Relative metabolite level in bile” value is recorded as 9%. The compound also had a Retention_time in data set [3] of 6.9 min.
Turning to `COc1cccc2c1C(=O)c1c(O)c3c(c(O)c1C2=O)C[C@@](O)(C(=O)CO)C[C@@H]3O[C@H]1C[C@H](N)[C@H](O)[C@H](C)O1` [DOXORUBICIN], the half-life in data set [9] is 11.5 h; in [16], 12.6 h.
Take `COc1ccc(-c2oc3cc(OCCO)cc(O)c3c(=O)c2O[C@@H]2O[C@H](CO[C@@H]3O[C@@H](C)[C@H](O)[C@@H](O)[C@H]3O)[C@@H](O)[C@H](O)[C@H]2O)cc1OC`: the Drug metabolism result in [4] was “metabolite_detected”. In addition, the “Relative metabolite level in bile” value in data set [2] is 0.5%. In data set [3], this compound displayed a Retention_time of 14.8 min.
`COc1ccc(-c2oc3cc(OCCO)cc(O)c3c(=O)c2O[C@@H]2O[C@H](CO[C@@H]3O[C@@H](C)[C@H](O)[C@@H](O)[C@H]3O)[C@@H](O)[C@H](O)[C@H]2O)cc1O`: the Drug metabolism result in data set [4] was “metabolite_detected”. The “Relative metabolite level in bile” value in data set [2] came to 40%. This compound registered a Retention_time in data set [3] of 11.1 min.
Regarding `C[C@@H]1O[C@@H](OC[C@H]2O[C@@H](Oc3c(-c4ccc(O)c(O)c4)oc4cc(OCC(=O)O)cc(O)c4c3=O)[C@H](O)[C@@H](O)[C@@H]2O)[C@H](O)[C@H](O)[C@H]1O`, the Drug metabolism entry in data set [4] was “metabolite_detected”. Also, the “Relative metabolite level in bile” value in data set [2] is 2%. The compound further gave a Retention_time in data set [3] of 9.7 min.
